Active and inactive are the calls of the source. No rule for the calls is given here.
Target: Bcl-2-like protein 1 (Homo sapiens) (UniProt Q07817)
Experiment: Bim-Bcl-XL interaction inhibitors, potency, dose response, biochemical, multiplexed, bead flow cytometry, human Bcl-XL (AID 1322); as to inhibition: test concentration not given here
Conditions: Bead-based flow cytometry, Bim peptide-Bcl-XL binding, MCF

Bcl-2-like protein 1 (Homo sapiens), sequence (Q07817 whole entry, looked up): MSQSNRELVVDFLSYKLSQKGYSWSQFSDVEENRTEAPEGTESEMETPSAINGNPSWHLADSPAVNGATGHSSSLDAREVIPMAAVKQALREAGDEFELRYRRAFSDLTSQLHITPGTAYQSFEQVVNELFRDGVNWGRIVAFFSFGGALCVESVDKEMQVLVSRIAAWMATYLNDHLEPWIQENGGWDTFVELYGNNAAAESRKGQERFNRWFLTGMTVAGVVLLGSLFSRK

outcome, inactive:
O=C1Nc2ccc([N+](=O)[O-])cc2OC1CCN1CCN(Cc2ccc3c(c2)OCO3)CC1 (stereo unspecified), COC(=O)c1ccc(/C=N/NC(=O)CC(=O)NCc2cccnc2)cc1, C/C(=N/NC(=O)c1cc(O)c(O)c(O)c1)c1ccc([N+](=O)[O-])cc1, COc1ccccc1N(C)S(=O)(=O)c1ccc(C(=O)OCC(N)=O)cc1, O=C1c2ccccc2C(=O)N1c1cccc2cccnc12, CCCCC(C(=O)OCC)C(N)Cc1ccc(F)cc1 (stereo unspecified), CCN(CC)c1ccc(NC2=C(Cl)C(=O)c3ccccc3C2=O)cc1

Same assay, conditions: Bead-based flow cytometry, Bim peptide-Bcl-XL binding, MCF

inhibition, inactive:
Cc1ccc(-c2cc(C(=O)Nc3ccccn3)c3ccccc3n2)o1, Cc1[nH]n(C(N)=S)c(=O)c1N=Nc1ccc(S(=O)(=O)N2CCCCCC2)cc1, Cc1cc(C)nc(/N=c2/ssnc2Cl)c1, Cc1ccc(N=c2ssnc2Cl)cc1, COc1cc2[nH]c(=S)nc(NCCCOC(C)C)c2cc1OC, Cn1c(=O)[nH]c(=O)c2c1nc(N1CCOCC1)n2CCSc1nc2ccccc2[nH]1, CC1(C)CC(NC(=O)COc2ccc([N+](=O)[O-])cc2)CC(C)(C)N1, COc1cccc(N2CC(C(=O)Nc3nnc(SCC(=O)c4ccccc4)s3)CC2=O)c1 (stereo unspecified), COc1ccc(/C=C/C(=O)Nc2sc(Cc3ccccc3)c(C)c2C(N)=O)cc1, CNC(=S)N/N=C/C1=CCC2CC1C2(C)C (stereo unspecified), CCCc1nnc2n1N=C(c1ccc(-c3cc(Cl)ccc3Cl)o1)CS2, C1=CC2c3ccccc3NC(c3ccncc3)C2C1 (stereo unspecified), Cc1ccc(-c2nc3c(c(=O)[nH]c(=O)n3Cc3ccccc3)n2C)o1, COC(=O)c1sc(NC(=O)c2ccc(Cn3cc(Cl)cn3)o2)c(C#N)c1C, N#CC(C#N)=C1C=CC=CN1/C(=C\c1ccco1)C(=O)c1ccccc1, COCCNC(=S)Nc1cc(OC)c(OC)cc1C#N, CN(C)c1ccc(Nc2nc(-c3cccnc3)cs2)cc1, CS(=O)(=O)NN1C(=O)c2ccccc2NC1c1cccs1 (stereo unspecified), CC(=O)N1CCN(C(=O)c2ccc(-n3c(C)ccc3C)cc2)CC1, Cc1cc(N2CCN(C)CC2)nc2ccc(NC(=S)N3CCN(c4cccc(Cl)c4)CC3)cc12, COc1ccc(NC(=O)c2sccc2SCc2cccc(C(F)(F)F)c2)cc1, COc1ccccc1C1=Nc2cccc3cccc(c23)N1, CCOc1cc(/C=C2/N=C(C)C(C(=O)OC)=C2O)ccc1O, C#CCOCCOCCOCCNc1nc(N2CCN(C(=O)[C@H](CCCCN)n3cc(CCCC)nn3)CC2)nc(N2CCN(C(=O)[C@H](Cc3ccc(O)cc3)n3cc(CCO)nn3)CC2)n1, CCOC(=O)CSC1=NC(=O)/C(=C\c2ccc(OC(C)=O)cc2)S1, CC(CCc1ccccc1)NC(=O)C1CCN(S(=O)(=O)N2CCCCC2)CC1 (stereo unspecified), Cc1cc(-c2csc(N)n2)c(C)n1CCC(C)C, O=C(NC1=NCCS1)NC12CC3CC(CC(C3)C1)C2, CCOC(=O)c1ccc(NC(=O)CSCCC(=O)O)cc1

Source: PubChem BioAssay AID1322 (NMMLSC, 2008)
